# Experimental data from publication PMC12029836, “Phytotoxicity, Cytotoxicity, and Antimicrobial Activity of Triethanolammonium Amino Acids Salts” (Molecules, 2025).
# Like-named read-outs stand apart in the source and are kept apart here.
# Assays:
# [1] = tested on: Lepidium sativum L. roots; details: 24 h incubation, mean(±SD), n = 3
# [2] = tested on: Lepidium sativum L. seeds; details: 24 h incubation, mean(±SD), n = 3
# [3] = 0.01% (w/w) compound in the medium
# [4] = 0.03% (w/w) compound in the medium
# [5] = 0.05% (w/w) compound in the medium
# [6] = 0.10% (w/w) compound in the medium
# [7] = 0.30% (w/w) compound in the medium
# [8] = 0.50% (w/w) compound in the medium
# [9] = 1.00% (w/w) compound in the medium
# [10] = 2.00% (w/w) compound in the medium
# [11] = 3.00% (w/w) compound in the medium
# [12] = 4.00% (w/w) compound in the medium
# [13] = 5.00% (w/w) compound in the medium
SMILES,"Inhibition of the root growth in pregerminated Lepidium sativum seeds (IRG, %) [1, 3]","Inhibition of the root growth in pregerminated Lepidium sativum seeds (IRG, %) [1, 4]","Inhibition of the root growth in pregerminated Lepidium sativum seeds (IRG, %) [1, 5]","Inhibition of the root growth in pregerminated Lepidium sativum seeds (IRG, %) [1, 6]","Inhibition of the root growth in pregerminated Lepidium sativum seeds (IRG, %) [1, 7]","Inhibition of the root growth in pregerminated Lepidium sativum seeds (IRG, %) [1, 8]","Inhibition of the root growth in pregerminated Lepidium sativum seeds (IRG, %) [1, 9]","Inhibition of the root growth in pregerminated Lepidium sativum seeds (IRG, %) [1, 10]","Inhibition of the root growth in pregerminated Lepidium sativum seeds (IRG, %) [1, 11]","Inhibition of the root growth in pregerminated Lepidium sativum seeds (IRG, %) [1, 12]","Inhibition of the root growth in pregerminated Lepidium sativum seeds (IRG, %) [1, 13]","Inhibition of the Lepidium sativum seeds germination (ISG, %) [2, 3]","Inhibition of the Lepidium sativum seeds germination (ISG, %) [2, 4]","Inhibition of the Lepidium sativum seeds germination (ISG, %) [2, 5]","Inhibition of the Lepidium sativum seeds germination (ISG, %) [2, 6]","Inhibition of the Lepidium sativum seeds germination (ISG, %) [2, 7]","Inhibition of the Lepidium sativum seeds germination (ISG, %) [2, 8]","Inhibition of the Lepidium sativum seeds germination (ISG, %) [2, 9]","Inhibition of the Lepidium sativum seeds germination (ISG, %) [2, 11]","Inhibition of the Lepidium sativum seeds germination (ISG, %) [2, 12]",also measured
N[C@@H](CC(=O)O)C(=O)O.OCCN(CCO)CCO.OCCN(CCO)CCO [[TEA]2[Asp]],7.7(±1.9) %,8.6(±2.1) %,11.6(±1.9) %,29.6(±2.0) %,32.6(±1.5) %,36.6(±1.6) %,40.7(±1.2) %,65.4(±0.7) %,76.7(±0.7) %,82.2(±0.6) %,86.2(±0.5) %,1.8(±0.1) %,3.6(±1.3) %,7.3(±0.8) %,9.1(±0.5) %,12.7(±0.8) %,16.4(±1.3) %,18.2(±0.8) %,20.0(±0.5) %,30.9(±0.9) %,"Inhibition of the Lepidium sativum seeds germination (ISG, %) [2, 10]: 19.1(±1.3) %; Inhibition of the Lepidium sativum seeds germination (ISG, %) [2, 13]: 50.9(±0.8) %"
NC(CCC(=O)O)C(=O)O.OCCN(CCO)CCO.OCCN(CCO)CCO (centres unmarked) [[TEA]2[Glu]],10.0(±2.9%,18.1(±2.7) %,21.3(±2.7) %,–,–,44.4(±2.2) %,51.5(±2.1) %,68.2(±1.3) %,78.5(±0.6) %,87.0(±0.4) %,90.5(±0.7) %,0.0(±0.0) %,0.0(±0.0) %,0.0(±0.0) %,3.7(±0.9) %,5.6(±0.9) %,7.4(±0.9) %,14.8(±2.5) %,29.6(±1.7) %,37.0(±0.5) %,"Inhibition of the Lepidium sativum seeds germination (ISG, %) [2, 10]: 22.2(±2.2) %; Inhibition of the Lepidium sativum seeds germination (ISG, %) [2, 13]: 63.0(±0.5) %"
NC(=O)C[C@H](N)C(=O)O.OCCN(CCO)CCO [[TEA][Asn]],4.5(±1.6) %,11.6(±1.6) %,16.0(±1.6) %,32.5(±1.7) %,34.9%,42.7(±1.5) %,58.9(±1.1) %,76.9(±1.0) %,81.5(±0.9) %,85(±0.8) %,88.2(±0.7) %,5.6(±2.9) %,6.5(±1.3) %,7.4(±0.5) %,9.3(±1.3) %,12.0(±0.9) %,14.8(±2.4) %,20.4(±2.6) %,46.3(±0.9) %,67.6(±2.9) %,"Inhibition of the Lepidium sativum seeds germination (ISG, %) [2, 10]: 33.3(±2.9) %; Inhibition of the Lepidium sativum seeds germination (ISG, %) [2, 13]: 88.9(±1.4) %"
NC(=O)CCC(N)C(=O)O.OCCN(CCO)CCO (centres unmarked) [[TEA][Gln]],13.0(±2.0) %,20.7(±1.8) %,21.0(±2.2) %,26.9(±1.8) %,50.5%,63.6(±1.3) %,72.9(±0.9) %,78.1(±1.0) %,85.2(±0.9) %,92.4(±0.5) %,93.6(±0.5) %,0.0(±0.0) %,0.0(±0.0) %,0.0(±0.0) %,1.7(±2.2) %,9.2(±1.3) %,15.0(±0.5) %,20.8(±2.6) %,53.8(±2.5) %,86.7(±1.3) %,"Inhibition of the Lepidium sativum seeds germination (ISG, %) [2, 10]: 38.1(±2.1) %"
NCC(=O)O.OCCN(CCO)CCO [[TEA][Gly]],8.7%,16.2(±1.8) %,20.9(±2.0) %,20.6(±1.7) %,49.3(±1.3) %,62.3(±1.3) %,75.7(±0.7) %,80.6(±0.6) %,93.3(±0.5) %,96.2(±0.4) %,95.9(±0.4) %,0.0(±0.5) %,0.0(±0.5) %,1.7 (±1.2) %,3.4 (±1.3) %,6.9 (±0.8) %,13.8(±2.6) %,20.7(±3.1) %,63.8%,81.0(±1.7) %,"Inhibition of the Lepidium sativum seeds germination (ISG, %) [2, 13]: 87.9(±0.9) %"
CCC(C)C(N)C(=O)O.OCCN(CCO)CCO [[TEA][Ile]],2.9(±1.7) %,27.8(±1.4) %,31.4(±1.9) %,35.1(±1.5) %,34.6(±1.6) %,36.9(±1.6) %,56.9(±1.2) %,70.9(±1.0) %,72.5(±0.7) %,77.5(±0.6) %,80.4(±0.3) %,0.0(±1.9) %,0.0(±1.4) %,0.0(±0.8) %,0.0(±0.5) %,3.6(±2.2) %,5.4(±0.5) %,17.9(±2.6) %,"26.8(±0,9) %",39.3(±2.1) %,"Inhibition of the Lepidium sativum seeds germination (ISG, %) [2, 10]: 23.2(±0.9) %; Inhibition of the Lepidium sativum seeds germination (ISG, %) [2, 13]: 80.4(±1.3) %"
